{"source": "patent US20040156869A1", "about": "“2-substituted quinazolin-4-ylamine analogues” (Neurogen Corporation, priority 2002, published 2004)"}
{"target": "human capsaicin receptor (VR1) (Homo sapiens, UniProt Q8NER1)", "sequence (Q8NER1 whole entry)": "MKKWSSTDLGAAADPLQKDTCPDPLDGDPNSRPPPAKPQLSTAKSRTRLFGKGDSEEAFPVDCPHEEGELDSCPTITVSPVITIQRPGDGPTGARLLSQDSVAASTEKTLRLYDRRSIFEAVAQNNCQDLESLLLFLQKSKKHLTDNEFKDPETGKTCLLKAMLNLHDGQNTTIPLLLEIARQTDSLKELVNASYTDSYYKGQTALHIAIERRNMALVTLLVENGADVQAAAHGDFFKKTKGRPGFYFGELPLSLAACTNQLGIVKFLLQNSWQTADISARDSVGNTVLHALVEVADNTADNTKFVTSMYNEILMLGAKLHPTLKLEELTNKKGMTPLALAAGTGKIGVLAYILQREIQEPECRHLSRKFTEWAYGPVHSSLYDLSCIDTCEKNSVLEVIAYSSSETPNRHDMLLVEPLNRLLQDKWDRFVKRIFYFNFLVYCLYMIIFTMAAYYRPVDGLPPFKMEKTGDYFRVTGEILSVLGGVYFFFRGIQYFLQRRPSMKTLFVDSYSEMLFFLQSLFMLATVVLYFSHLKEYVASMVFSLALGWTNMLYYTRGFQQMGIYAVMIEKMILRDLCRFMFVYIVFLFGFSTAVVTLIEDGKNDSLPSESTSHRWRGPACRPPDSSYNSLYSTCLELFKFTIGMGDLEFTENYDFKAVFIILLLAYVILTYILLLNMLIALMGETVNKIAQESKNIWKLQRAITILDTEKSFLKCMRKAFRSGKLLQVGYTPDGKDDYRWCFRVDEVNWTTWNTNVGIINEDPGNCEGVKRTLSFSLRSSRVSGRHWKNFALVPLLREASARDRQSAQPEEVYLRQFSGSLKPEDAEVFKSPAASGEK", "assay": "Capsaicin receptor binding assay ([3H]RTX competition, VR1-transfected HEK293 membranes)", "units": {"Ki": "nM"}}
{"smiles": "FC(F)(F)c1ccc(Nc2nc(COCCN3CCCCC3)nc3cc(-c4ncccc4C(F)(F)F)ccc23)cn1", "note": "[Compound 30, [2-(2-Piperidin-1-yl-ethoxymethyl)-7-(3-trifluoromethyl-pyridin-2-yl)-quinazolin-4-yl]-(6-trifluoromethyl-pyridin-3-yl)-amine]", "Ki": "< 1000"}
{"smiles": "CN(CCc1ccccc1)CCc1nc(Nc2ccc(C(F)(F)F)cc2)c2ccc(-c3ncccc3C(F)(F)F)cc2n1", "note": "[Compound 398, [2-[2-(Methyl-phenethyl-amino)-ethyl]-7-(3-trifluoromethyl-pyridin-2-yl)-quinazolin-4-yl]-(4-trifluoromethyl-phenyl)-amine]", "Ki": "< 1000"}
{"smiles": "C=CCN(CC=C)Cc1nc(Nc2ccc(C(F)(F)F)nc2)c2ccc(-c3ncccc3C(F)(F)F)cc2n1", "note": "[Compound 372, [2-Diallylaminomethyl-7-(3-trifluoromethyl-pyridin-2-yl)-quinazolin-4-yl]-(6-trifluoromethyl-pyridin-3-yl)-amine]", "Ki": "< 1000"}
{"smiles": "FC(F)(F)c1ccc(Nc2cc(CN3CCSCC3)nc3nc(-c4ncccc4C(F)(F)F)ccc23)cc1", "note": "[Compound 802, [2-Thiomorpholin-4-ylmethyl-7-(3-trifluoromethyl-pyridin-2-yl)-[1,8]naphthyridin-4-yl]-(4-trifluoromethyl-phenyl)-amine]", "Ki": "< 1000"}
{"smiles": "COCc1nc(Nc2ccc(C(C)(C)C(C)=O)cc2)c2ccc(-c3ncccc3C(F)(F)F)nc2n1", "note": "[Compound 208, 3-{4-[2-Methoxymethyl-7-(3-trifluoromethyl-pyridin-2-yl)-pyrido[2,3-d]pyrimidin-4-ylamino]-phenyl}-3-methyl-butan-2-one]", "Ki": "< 1000"}
{"smiles": "COCc1nc(Nc2ccc(C(F)(F)F)cc2)c2ccc(-c3ncccc3Cl)cc2n1", "note": "[Compound 70, [7-(3-Chloro-pyridin-2-yl)-2-methoxymethyl-quinazolin-4-yl]-(4-trifluoromethyl-phenyl)-amine]", "Ki": "< 1000"}
{"smiles": "CCN(Cc1nc(Nc2ccc(C(F)(F)F)cc2)c2ccc(-c3ncccc3C(F)(F)F)cc2n1)C(C)C", "note": "[Compound 332]", "Ki": "< 1000"}
{"smiles": "Cc1cc(Nc2nc(COCC(C)C)nc3nc(-c4ncccc4Cl)ccc23)ccc1F", "note": "[Compound 269, [7-(3-Chloro-pyridin-2-yl)-2-isobutoxymethyl-pyrido[2,3-d]pyrimidin-4-yl]-(4-fluoro-3-methyl-phenyl)-amine]", "Ki": "< 1000"}
{"smiles": "CCCCCCCCNCc1nc(Nc2ccc(C(F)(F)F)cc2)c2ccc(-c3ncccc3C(F)(F)F)cc2n1", "note": "[Compound 540, [2-Octylaminomethyl-7-(3-trifluoromethyl-pyridin-2-yl)-quinazolin-4-yl]-(4-trifluoromethyl-phenyl)-amine]", "Ki": "< 1000"}
{"smiles": "CC(C)N(C)Cc1nc(Nc2ccc(C(F)(F)F)nc2)c2ccc(-c3ncccc3C(F)(F)F)cc2n1", "note": "[Compound 378, [2-[(Isopropyl-methyl-amino)-methyl]-7-(3-trifluoromethyl-pyridin-2-yl)-quinazolin-4-yl]-(6-trifluoromethyl-pyridin-3-yl)-amine]", "Ki": "< 1000"}
{"smiles": "CC(C)COCc1nc(Nc2ccc(C#N)cc2)c2ccc(-c3ncccc3Cl)nc2n1", "note": "[Compound 261, 4-[7-(3-Chloro-pyridin-2-yl)-2-isobutoxymethyl-pyrido[2,3-d]pyrimidin-4-ylamino]-benzonitrile]", "Ki": "< 1000"}
{"smiles": "CCCN(CCc1nc(Nc2ccc(C(F)(F)F)cc2)c2ccc(-c3ncccc3C(F)(F)F)cc2n1)CC1CC1", "note": "[Compound 418, [2-[(Cyclopropylmethyl-propyl-amino)-ethyl]-7-(3-trifluoromethyl-pyridin-2-yl)-quinazolin-4-yl]-(4-trifluoromethyl-phenyl)-amine]", "Ki": "< 1000"}
{"smiles": "COCc1nc(Nc2ccc(C(C)(C)C)cc2)c2ncc(-c3ncccc3C(F)(F)F)cc2n1", "note": "[Compound 50, (4-tert-Butyl-phenyl)-[2-methoxymethyl-7-(3-trifluoromethyl-pyridin-2-yl)-pyrido[3,2-d]pyrimidin-4-yl]-amine]", "Ki": "< 1000"}
{"smiles": "OCC1CCCCN1Cc1nc(Nc2ccc(C(F)(F)F)cc2)c2ccc(-c3ncccc3C(F)(F)F)cc2n1", "note": "(stereo not drawn) [Compound 497, {1-[4-(4-Trifluoromethyl-phenylamino)-7-(3-trifluoromethyl-pyridin-2-yl)-quinazolin-2-ylmethyl]piperidin-2-yl}-methanol]", "Ki": "< 1000"}
{"smiles": "COCc1nc(Nc2ccc(S(=O)(=O)C(F)(F)F)cc2)c2ccc(-c3ncccc3C)nc2n1", "note": "[Compound 159, [2-Methoxymethyl-7-(3-methyl-pyridin-2-yl)-pyrido[2,3-d]pyrimidin-4-yl]-(4-trifluoromethanesulfonyl-phenyl)-amine]", "Ki": "< 1000"}
{"smiles": "C[C@@H]1CN(Cc2nc(Nc3ccc(C(F)(F)F)cc3)c3ccc(-c4ccccc4C(F)(F)F)cc3n2)C[C@H](C)O1", "note": "[Compound 620, [2-(2,6-Dimethyl-morpholin-4-ylmethyl)-7-(2-trifluoromethyl-phenyl)-quinazolin-4-yl]-(4-trifluoromethyl-phenyl)-amine (cis)]", "Ki": "< 1000"}
{"smiles": "CC1(C)CCCN(CCc2nc(Nc3ccc(C(F)(F)F)cc3)c3ccc(-c4ncccc4C(F)(F)F)cc3n2)C1", "note": "[Compound 404, [2-(3,3-Dimethyl-piperidin-1-ylethyl)-7-(3-trifluoromethyl-pyridin-2-yl)-quinazolin-4-yl]-(4-trifluoromethyl-phenyl)-amine]", "Ki": "< 1000"}
{"smiles": "COCc1nc(Nc2ccc(C(F)(F)F)nc2)c2ncc(-c3ncccc3C(F)(F)F)cc2n1", "note": "[Compound 53, [2-Methoxymethyl-7-(3-trifluoromethyl-pyridin-2-yl)-pyrido[3,2-d]pyrimidin-4-yl]-(6-trifluoromethyl-pyridin-3-yl)-amine]", "Ki": "< 1000"}
{"smiles": "FC(F)(F)c1ccc(Nc2nc(CN3CCSCC3)nc3cc(-c4ncccc4C(F)(F)F)ccc23)cc1", "note": "[Compound 548, [2-Thiomorpholin-4-ylmethyl-7-(3-trifluoromethyl-pyridin-2-yl)-quinazolin-4-yl]-(4-trifluoromethyl-phenyl)-amine]", "Ki": "< 1000"}
{"smiles": "CCOCc1nc(Nc2ccc(C(F)(F)F)cc2)c2ccc(-c3ncccc3C)cc2n1", "note": "[Compound 90, [2-Ethoxymethyl-7-(3-methyl-pyridin-2-yl)-quinazolin-4-yl]-(4-trifluoromethyl-phenyl)-amine]", "Ki": "< 1000"}
{"smiles": "CC(c1ccc(Nc2nc(CN3CCCCC3)nc3cc(-c4ncccc4C(F)(F)F)ccc23)cc1)C(F)(F)F", "note": "(stereo not drawn) [Compound 523, [2-Piperidin-1-ylmethyl-7-(3-trifluoromethyl-pyridin-2-yl)-quinazolin-4-yI]-[4-(2,2,2-trifluoro-1-methyl-ethyl)-phenyl]-amine]", "Ki": "< 1000"}
{"smiles": "COCc1nc(Nc2ccc(C(C)(C)C)cc2)c2ccc(-c3ncccc3C)nc2n1", "note": "[Compound 95, (4-tert-Butyl-phenyl)-[2-methoxymethyl-7-(3-methyl-pyridin-2-yl)-pyrido[2,3-d]pyrimidin-4-yl]-amine]", "Ki": "< 1000"}
{"smiles": "C[C@@H]1CN(Cc2nc(Nc3ccc(C(F)(F)F)cc3)c3ccc(-c4ncccc4Cl)cc3n2)CCO1", "note": "[Compound 674, (R)-[7-(3-Chloro-pyridin-2-yl)-2-(2-methyl-morpholin-4-ylmethyl)-quinazolin-4-yl]-(4-trifluoromethyl-phenyl)-amine]", "Ki": "< 1000"}
{"smiles": "CCOCc1nc(Nc2ccc(C(C)C(F)(F)F)cc2)c2ccc(-c3ncccc3Cl)nc2n1", "note": "(stereo not drawn) [Compound 136, [7-(3-Chloro-pyridin-2-yl)-2-ethoxymethyl-pyrido[2,3-d]pyrimidin-4-yl]-[4-(2,2,2-trifluoro-1-methyl-ethyl)-phenyl]-amine]", "Ki": "< 1000"}
{"smiles": "COCCN(CCOC)Cc1nc(Nc2ccc(C(F)(F)F)cc2)c2ccc(-c3ncccc3C(F)(F)F)nc2n1", "note": "[Compound 749, [2-{[Bis-(2-methoxy-ethyl)-amino]-methyl}-7-(3-trifluoromethyl-pyridin-2-yl)-pyrido[2,3-d]pyrimidin-4-yl]-(4-trifluoromethyl-phenyl)-amine]", "Ki": "< 1000"}
{"smiles": "CCNCc1nc(Nc2ccc(C(F)(F)F)cc2)c2ccc(-c3ncccc3C(F)(F)F)cc2n1", "note": "[Compound 531, [2-Ethylaminomethyl-7-(3-trifluoromethyl-pyridin-2-yl)-quinazolin-4-yl]-(4-trifluoromethyl-phenyl)-amine]", "Ki": "< 1000"}
{"smiles": "CC(C)(C#N)c1ccc(Nc2nc(COCc3ccccc3)nc3cc(-c4ncccc4C(F)(F)F)ccc23)cc1", "note": "[Compound 41, 2-{4-[2-Benzyloxymethyl-7-(3-trifluoromethyl-pyridin-2-yl)-quinazolin-4-ylamino]-phenyl}-2-methyl-propionitrile]", "Ki": "< 1000"}
{"smiles": "CC(C)COCc1nc(Nc2ccc(F)cc2)c2ccc(-c3ncccc3C(F)(F)F)nc2n1", "note": "[Compound 248, (4-Fluoro-phenyl)-[2-isobutoxymethyl-7-(3-trifluoromethyl-pyridin-2-yl)-pyrido[2,3-d]pyrimidin-4-yl]-amine]", "Ki": "< 1000"}
{"smiles": "COCc1nc(Nc2ccc(C3(C(=O)N4C[C@@H](C)O[C@@H](C)C4)CCC3)cc2)c2ccc(-c3ncccc3C(F)(F)F)nc2n1", "note": "[Compound 160, (2,6-Dimethyl-morpholin-4-yl)-(1-{4-[2-methoxymethyl-7-(3-trifluoromethyl-pyridin-2-yl)-pyrido[2,3-d]pyrimidin-4-ylamino]-phenyl}-cyclobutyl)-methanone]", "Ki": "< 1000"}
{"smiles": "CN(C(C)(C)C)S(=O)(=O)c1ccc(Nc2nc(CO)nc3cc(-c4ncccc4C(F)(F)F)ccc23)cc1", "note": "[Compound 187, N-tert-Butyl-4-[2-hydroxymethyl-7-(3-trifluoromethyl-pyridin-2-yl)-quinazolin-4-ylamino]-N-methyl-benzenesulfonamide]", "Ki": "< 1000"}
{"smiles": "COCCc1nc(Nc2ccc(C(C)(C)C)cc2)c2ccc(-c3ncccc3C(F)(F)F)cc2n1", "note": "[Compound 47, (4-tert-Butyl-phenyl)-[2-(2-methoxy-ethyl)-7-(3-trifluoromethyl-pyridin-2-yl)-quinazolin-4-yl]-amine]", "Ki": "< 1000"}
{"smiles": "COCc1nc(Nc2ccc(C(F)(F)F)cc2)c2ccc(-c3nccnc3Cl)nc2n1", "note": "[Compound 235, [7-(3-Chloro-pyrazin-2-yl)-2-methoxymethyl-pyrido[2,3-d]pyrimidin-4-yl]-(4-trifluoromethyl-phenyl)-amine]", "Ki": "< 1000"}
{"smiles": "C[C@H]1CN(Cc2nc(Nc3ccc(C(F)(F)F)cc3)c3ccc(-c4ncccc4Cl)cc3n2)C[C@H](C)O1", "note": "[Compound 604, (S,S)-[7-(3-Chloro-pyridin-2-yl)-2-(2,6-dimethyl-morpholin-4-ylmethyl)-quinazolin-4-yl]-(4-trifluoromethyl-phenyl)-amine]", "Ki": "< 1000"}
